Test results published in US9893302B2, “Heterocyclic fluorescent dyes and method of production thereof” (BASF SE, priority 2013, dated 2018).
Values joined by “and” are separate entries in the source; they are usually repeats but may differ in a detail not shown here. Equal entries are not always repeated. Where two headings read alike, the source gives them in different places.

Legend:
[1] = Solubility in typical organic solvents; format: physicochemical; conditions: for solubility compared with compound V-1: in typical organic solvents; for solubility: organic solvent or mixture
Source text: Reference is made to the below table.

[2] = Spectroscopic data: absorption, emission, Stokes shift, extinction coefficient, fluorescence quantum yield; format: physicochemical; conditions: for φfl (fluorescence quantum yield): standards Rhodamine B or Rhodamine 6G in EtOH
Source text: Spectroscopic data of compounds 3a, 3b and 3d as well as comparative compounds
Rhodamine B in EtOH or Rhodamine 6G in EtOH are used as standards for quantum yield measurements.

[3] = in CHCl3, read-out: Solubility in CHCl3
[4] = in Toluene, read-out: Solubility in Toluene

Compound | solubility compared with compound V-1 [1] | solubility [1, 3] | solubility [1, 4] | fluorescence quantum yield [2] | Stokes shift ([2]; solvent CHCl3) | maxλabs ([2]; solvent CHCl3) | maxλem ([2]; solvent CHCl3) | εmax ([2]; solvent CHCl3) | φfl (fluorescence quantum yield) ([2]; solvent CHCl3) | melting point | Stokes shift ([2]; solvent DMF) | maxλabs ([2]; solvent DMF) | maxλem ([2]; solvent DMF) | εmax ([2]; solvent DMF) | φfl (fluorescence quantum yield) ([2]; solvent DMF)
COc1cc2c(cc1OC)C1=C3C(=O)N4C=C(c5ccccc5)c5cc(OC)c(OC)cc5C4=C3C(=O)N1C=C2c1ccccc1 [3a] | order of magnitude higher | 3460 µM and 2110 µg/mL | 47 µM and 28.6 µg/mL | around 80% | 140 cm⁻¹ | 600 nm | 605 nm | 100000 M⁻¹ cm⁻¹ | 0.89 | – | – | – | – | – | –
COc1cccc(C2=CN3C(=O)C4=C5c6cc(OC)c(OC)cc6C(c6cccc(OC)c6)=CN5C(=O)C4=C3c3cc(OC)c(OC)cc32)c1 [3b] | order of magnitude higher | 955 µM and 639 µg/mL | 53.4 µM and 35.7 µg/mL | around 80% | 220 cm⁻¹ | 601 nm | 609 nm | 85000 M⁻¹ cm⁻¹ | 0.85 | – | – | – | – | – | –
CC(C)(C)c1cc(C(C)(C)C)c2oc3c(c2c1)C(c1ccccc1)=CN1C(=O)C2=C4c5oc6c(C(C)(C)C)cc(C(C)(C)C)cc6c5C(c5ccccc5)=CN4C(=O)C2=C31 [3d] | order of magnitude higher | – | – | around 80% | 160 cm⁻¹ | 654 nm | 661 nm | 150000 M⁻¹ cm⁻¹ | 0.81 | > 400 °C (dec.) | – | – | – | – | –

Now from value to compound:

solubility compared with compound V-1 [1] | solubility [1, 3] | solubility [1, 4] | fluorescence quantum yield [2] | Stokes shift ([2]; solvent CHCl3) | maxλabs ([2]; solvent CHCl3) | maxλem ([2]; solvent CHCl3) | εmax ([2]; solvent CHCl3) | φfl (fluorescence quantum yield) ([2]; solvent CHCl3) | melting point | Stokes shift ([2]; solvent DMF) | maxλabs ([2]; solvent DMF) | maxλem ([2]; solvent DMF) | εmax ([2]; solvent DMF) | φfl (fluorescence quantum yield) ([2]; solvent DMF) | Compound
– | 272 µM and 126 µg/mL | 6.13 µM and 2.85 µg/mL | – | 200 cm⁻¹ | 593 nm | 600 nm | 110000 M⁻¹ cm⁻¹ | 0.19 | – | 220 cm⁻¹ | 593 nm | 601 nm | 91000 M⁻¹ cm⁻¹ | 0.22 | COc1cc2c(cc1OC)C1=C3C(=O)N4C=Cc5cc(OC)c(OC)cc5C4=C3C(=O)N1C=C2 [V-1]
– | – | – | – | 210 cm⁻¹ | 643 nm | 652 nm | 120000 M⁻¹ cm⁻¹ | 0.05 | – | 240 cm⁻¹ | 645 nm | 655 nm | 107000 M⁻¹ cm⁻¹ | 0.02 | CC(C)(C)c1cc(C(C)(C)C)c2oc3c(c2c1)C=CN1C(=O)C2=C4c5oc6c(C(C)(C)C)cc(C(C)(C)C)cc6c5C=CN4C(=O)C2=C31 [V-2]
